Measured values reported in patent publication US10759793B2, “2-(pyrazolopyridin-3-yl)pyrimidine derivatives as JAK inhibitors” (ALMIRALL, S.A., priority 2015, dated 2020).

What was measured:
Assay type in all cases: biochemical
[1] = target: JAK2 (Homo sapiens (Human), UniProt O60674); test: In vitro JAK kinase assay (TR-FRET), JAK2; conditions: catalytic domain aa 826-1132, GST-fusion; ATP 0.2 μM; peptide 20 nM; 30 minutes at room temperature
Description: (§1) Compounds were screened for their ability to inhibit JAK1, JAK2 and JAK3 using the assays as indicated below. […] The enzymatic activity was assayed using as substrate a biotinylated peptide, poly (GT)-Biotin (CisBio). […] The degree of phosphorylation was detected by TR-FRET (time-resolved fluorescence energy transfer). […] The enzymatic reactions took place for 30 minutes at room temperature. […] Incubate for 3 h and read on Victor 2V spectrofluorometer (Perkin Elmer) set to read fluorescence resonance energy transfer.

[2] = target: JAK1 (Homo sapiens (Human), UniProt P23458); test: In vitro JAK kinase assay (TR-FRET), JAK1; conditions: catalytic domain aa 850-1154, GST-fusion; ATP 3 μM; peptide 60 nM; 30 minutes at room temperature
Description: as §1

[3] = target: JAK3 (Homo sapiens (Human), UniProt P52333); test: In vitro JAK kinase assay (TR-FRET), JAK3; conditions: catalytic domain aa 795-1124, GST-fusion; ATP 0.6 μM; peptide 140 nM; 30 minutes at room temperature
Description: as §1

JAK3, sequence (P52333 795-1124): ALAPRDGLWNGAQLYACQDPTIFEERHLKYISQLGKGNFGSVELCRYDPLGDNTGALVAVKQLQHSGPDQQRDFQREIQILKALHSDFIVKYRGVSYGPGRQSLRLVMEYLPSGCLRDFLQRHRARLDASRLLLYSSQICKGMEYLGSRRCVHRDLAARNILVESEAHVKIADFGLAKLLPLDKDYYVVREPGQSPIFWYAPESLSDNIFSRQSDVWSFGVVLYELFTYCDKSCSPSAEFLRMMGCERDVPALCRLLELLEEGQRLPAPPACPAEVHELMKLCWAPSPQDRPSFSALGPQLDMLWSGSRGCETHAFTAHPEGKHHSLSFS
JAK1, sequence (P23458 850-1154): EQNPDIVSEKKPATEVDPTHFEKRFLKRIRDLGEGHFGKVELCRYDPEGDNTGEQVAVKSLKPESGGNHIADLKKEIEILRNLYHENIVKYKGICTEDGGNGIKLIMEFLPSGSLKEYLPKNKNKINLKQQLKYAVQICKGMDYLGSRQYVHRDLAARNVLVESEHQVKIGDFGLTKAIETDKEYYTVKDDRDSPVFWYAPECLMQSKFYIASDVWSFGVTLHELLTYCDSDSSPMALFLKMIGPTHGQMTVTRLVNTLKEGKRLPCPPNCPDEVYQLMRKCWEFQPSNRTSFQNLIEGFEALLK
JAK2, sequence (O60674 826-1132): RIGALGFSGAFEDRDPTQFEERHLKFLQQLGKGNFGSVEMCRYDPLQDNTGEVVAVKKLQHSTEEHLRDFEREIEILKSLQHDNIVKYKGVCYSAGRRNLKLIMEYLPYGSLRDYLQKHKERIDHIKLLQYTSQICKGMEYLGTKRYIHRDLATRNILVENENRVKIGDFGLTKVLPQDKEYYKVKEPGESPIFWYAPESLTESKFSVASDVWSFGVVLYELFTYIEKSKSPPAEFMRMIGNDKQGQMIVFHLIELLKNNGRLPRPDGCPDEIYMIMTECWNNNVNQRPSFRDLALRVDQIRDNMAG

SMILES	IC50 [1]	IC50 [2]	IC50 [3]
O=C(CO)N1CCC[C@@H](Nc2nc(-c3cnn4ccccc34)nc(OCCO)c2F)C1 [Example 40, 2-((3R)-3-{[5-Fluoro-6-(2-hydroxyethoxy)-2-pyrazolo[1,5-a]pyridin-3-ylpyrimidin-4-yl]amino}piperidin-1-yl)-2-oxoethanol]	0.8 nM	4 nM	2 nM
O=C(CO)N1CCC[C@@H](Nc2nc(-c3cnn4ccccc34)nc(OCCCO)c2F)C1 [Example 41, 3-[(5-Fluoro-6-{[(3R)-1-glycoloylpiperidin-3-yl]amino}-2-pyrazolo[1,5-a]pyridin-3-ylpyrimidin-4-yl)oxy]propan-1-ol]	1 nM	8 nM	3 nM
COc1nc(-c2cnn3ccccc23)nc(N[C@@H]2CCCN(C(=O)CO)C2)c1F [Example 42, 2-{(3R)-3-[(5-Fluoro-6-methoxy-2-pyrazolo[1,5-a]pyridin-3-ylpyrimidin-4-yl)amino]piperidin-1-yl}-2-oxoethanol]	1 nM	13 nM	1 nM
O=C(CO)N1CCC[C@@H](Nc2nc(-c3cnn4ccccc34)nc(O)c2F)C1 [Example 43, 5-Fluoro-6-{[(3R)-1-glycoloylpiperidin-3-yl]amino}-2-pyrazolo[1,5-a]pyridin-3-ylpyrimidin-4-ol]	0.7 nM	4 nM	1 nM
O=C(COc1nc(-c2cnn3ccccc23)nc(N[C@@H]2CCCN(C(=O)CO)C2)c1F)OCc1ccccc1 [Example 44, Benzyl[(5-fluoro-6-{[(3R)-1-glycoloylpiperidin-3-yl]amino}-2-pyrazolo[1,5-a]pyridin-3-ylpyrimidin-4-yl)oxy]acetate]	74 nM	970 nM	140 nM
CCOc1nc(-c2cnn3ccccc23)nc(N[C@@H]2CCCN(C(=O)CO)C2)c1F [Example 45, 2-{(3R)-3-[(6-Ethoxy-5-fluoro-2-pyrazolo[1,5-a]pyridin-3-ylpyrimidin-4-yl)amino]piperidin-1-yl}-2-oxoethanol]	1 nM	4 nM	3 nM
CCOC(=O)c1nc(-c2cnn3ccccc23)nc(N[C@@H]2CCCN(C(=O)CO)C2)c1F [Example 46, Ethyl 5-fluoro-6-{[(3R)-1-glycoloylpiperidin-3-yl]amino}-2-pyrazolo[1,5-a]pyridin-3-ylpyrimidine-4-carboxylate]	3 nM	10 nM	4 nM
N#Cc1nc(-c2cnn3ccccc23)nc(N[C@@H]2CCCN(C(=O)CO)C2)c1F [Example 47, 5-Fluoro-6-{[(3R)-1-glycoloylpiperidin-3-yl]amino}-2-pyrazolo[1,5-a]pyridin-3-ylpyrimidine-4-carbonitrile]	4 nM	10 nM	12 nM
O=C(CO)N1CCC[C@@H](Nc2nc(-c3cnn4ccccc34)nc(OCC(F)(F)F)c2F)C1 [Example 49, 2-((3R)-3-{[5-Fluoro-2-pyrazolo[1,5-a]pyridin-3-yl-6-(2,2,2-trifluoroethoxy)pyrimidin-4-yl]amino}piperidin-1-yl)-2-oxoethanol]	10 nM	35 nM	14 nM
O=C(CO)N1CCC[C@@H](Nc2nc(-c3cnn4ccccc34)nc(OCC(F)F)c2F)C1 [Example 50, 2-((3R)-3-{[6-(2,2-Difluoroethoxy)-5-fluoro-2-pyrazolo[1,5-a]pyridin-3-ylpyrimidin-4-yl]amino}piperidin-1-yl)-2-oxoethanol]	3 nM	15 nM	9 nM
CC(C)Oc1nc(-c2cnn3ccccc23)nc(N[C@@H]2CCCN(C(=O)CO)C2)c1F [Example 51, 2-{(3R)-3-[(5-Fluoro-6-isopropoxy-2-pyrazolo[1,5-a]pyridin-3-ylpyrimidin-4-yl)amino]piperidin-1-yl}-2-oxoethanol]	2 nM	36 nM	3 nM
O=C(CO)N1CCC[C@@H](Oc2nc(-c3cnn4ccccc34)nc(N3CCOCC3)c2F)C1 [Example 52, 2-{(3R)-3-[(5-Fluoro-6-morpholin-4-yl-2-pyrazolo[1,5-a]pyridin-3-ylpyrimidin-4-yl)oxy]piperidin-1-yl}-2-oxoethanol]	1 nM	11 nM	11 nM
N#CCC(=O)N1CCC[C@@H](Oc2nc(-c3cnn4ccccc34)nc(N3CCOCC3)c2F)C1 [Example 53, 3-{(3R)-3-[(5-fluoro-6-morpholin-4-yl-2-pyrazolo[1,5-a]pyridin-3-ylpyrimidin-4-yl)oxy]piperidin-1-yl}-3-oxopropanenitrile]	0.5 nM	2 nM	3 nM
COc1nc(-c2cnn3ccccc23)nc(N[C@@H]2CCCN(c3cnc(C#N)cn3)C2)c1F [Example 56, 5-{(3R)-3-[(5-fluoro-6-methoxy-2-pyrazolo[1,5-a]pyridin-3-ylpyrimidin-4-yl)amino]piperidin-1-yl}pyrazine-2-carbonitrile]	7 nM	43 nM	8 nM
N#Cc1cnc(N2CCC[C@@H](Nc3nc(-c4cnn5ccccc45)nc(OCCO)c3F)C2)nc1 [Example 57, 2-((3R)-3-{[5-fluoro-6-(2-hydroxyethoxy)-2-pyrazolo[1,5-a]pyridin-3-ylpyrimidin-4-yl]amino}piperidin-1-yl)pyrimidine-5-carbonitrile]	2 nM	19 nM	2 nM
COC[C@H](C)Oc1nc(-c2cnn3ccccc23)nc(N[C@@H]2CCCN(C(=O)CO)C2)c1F [Example 58, 2-[(3R)-3-({5-Fluoro-6-[(1S)-2-methoxy-1-methylethoxy]-2-pyrazolo[1,5-a]pyridin-3-ylpyrimidin-4-yl}amino)piperidin-1-yl]-2-oxoethanol]	2 nM	66 nM	7 nM
C[C@@H](CO)Oc1nc(-c2cnn3ccccc23)nc(N[C@@H]2CCCN(C(=O)CO)C2)c1F [Example 59, (2S)-2-[(5-Fluoro-6-{[(3R)-1-glycoloylpiperidin-3-yl]amino}-2-pyrazolo[1,5-a]pyridin-3-ylpyrimidin-4-yl)oxy]propan-1-ol]	3 nM	29 nM	4 nM
COC[C@@H](C)Oc1nc(-c2cnn3ccccc23)nc(N[C@@H]2CCCN(C(=O)CO)C2)c1F [Example 60, 2-[(3R)-3-({5-Fluoro-6-[(1R)-2-methoxy-1-methylethoxy]-2-pyrazolo[1,5-a]pyridin-3-ylpyrimidin-4-yl}amino)piperidin-1-yl]-2-oxoethanol]	7 nM	110 nM	16 nM
C[C@H](CO)Oc1nc(-c2cnn3ccccc23)nc(N[C@@H]2CCCN(C(=O)CO)C2)c1F [Example 61, (2R)-2-[(5-Fluoro-6-{[(3R)-1-glycoloylpiperidin-3-yl]amino}-2-pyrazolo[1,5-a]pyridin-3-ylpyrimidin-4-yl)oxy]propan-1-ol]	10 nM	58 nM	8 nM
O=C(CO)N1CCC[C@@H](Nc2nc(-c3cnn4ccccc34)nc(-c3cccnc3)c2F)C1 [Example 62, 2-{(3R)-3-[(5-Fluoro-2-pyrazolo[1,5-a]pyridin-3-yl-6-pyridin-3-ylpyrimidin-4-yl)amino]piperidin-1-yl}-2-oxoethanol]	1 nM	4 nM	7 nM
COc1nc(-c2cnn3ccccc23)nc(O[C@@H]2CCCN(C(=O)CO)C2)c1F [Example 63, 2-{(3R)-3-[(5-Fluoro-6-methoxy-2-pyrazolo[1,5-a]pyridin-3-ylpyrimidin-4-yl)oxy]piperidin-1-yl}-2-oxoethanol]	3 nM	127 nM	9 nM
COc1nc(-c2cnn3ccccc23)nc(O[C@@H]2CCCN(C(=O)CC#N)C2)c1F [Example 64, 3-{(3R)-3-[(5-Fluoro-6-methoxy-2-pyrazolo[1,5-a]pyridin-3-ylpyrimidin-4-yl)oxy]piperidin-1-yl}-3-oxopropanenitrile]	3 nM	28 nM	4 nM
O=C(CO)N1CCC[C@@H](Oc2nc(-c3cnn4ccccc34)nc(OCCO)c2F)C1 [Example 65, 2-((3R)-3-{[5-Fluoro-6-(2-hydroxyethoxy)-2-pyrazolo[1,5-a]pyridin-3-ylpyrimidin-4-yl]oxy}piperidin-1-yl)-2-oxoethanol]	2 nM	38 nM	9 nM
CN1CCN(c2nc(-c3cnn4ccccc34)nc(O[C@@H]3CCCN(C(=O)CO)C3)c2F)CC1 [Example 67, 2-((3R)-3-{[5-Fluoro-6-(4-methylpiperazin-1-yl)-2-pyrazolo[1,5-a]pyridin-3-ylpyrimidin-4-yl]oxy}piperidin-1-yl)-2-oxoethanol]	5 nM	139 nM	23 nM
CN1CCN(c2nc(-c3cnn4ccccc34)nc(O[C@@H]3CCCN(C(=O)CC#N)C3)c2F)CC1 [Example 68, 3-((3R)-3-{[5-Fluoro-6-(4-methylpiperazin-1-yl)-2-pyrazolo[1,5-a]pyridin-3-ylpyrimidin-4-yl]oxy}piperidin-1-yl)-3-oxopropanenitrile]	1 nM	48 nM	6 nM
O=C(CO)N1CCC[C@@H](Oc2nc(-c3cnn4ccccc34)nc(NCCO)c2F)C1 [Example 69, 2-[(3R)-3-({5-Fluoro-6-[(2-hydroxyethyl)amino]-2-pyrazolo[1,5-a]pyridin-3-ylpyrimidin-4-yl}oxy)piperidin-1-yl]-2-oxoethanol]	3 nM	37 nM	11 nM
